The subject of series [1] is DA and DA.E3chr12 rats. The following applies: PIA. The protocol:
Arthritic development was monitored in all limbs using a macroscopic scoring system. Briefly, 1 point was given for each swollen or red toe, 1 point for each swollen midfoot, digit, or knuckle, and 5 points for a swollen ankle. The maximum score for a limb was 15 points, and the maximum score for a rat was 60 points.
For administration, 50 mg of DPI was dissolved in 250 mL DMSO/PBS. About 0.5 mL was injected intraperitoneally into rats on day 0, 2, 3, 4, 5, 6, 7, 8, 10, 12, 14, 17, 19, and 21.
Arthritis development was monitored in all limbs.

The test system of series [2] is mice. The following applies: daily intraperitoneal 2.8 μmol/kg (880 μg/kg); cited from earlier work.
In series [3] the test system is NADPH complex. Put plainly: Oxygen burst studies, activation of NADPH complex (cell type not stated). The series is classed as cell-based. As to conditions: oxygen burst studies / WST-1 assay. The protocol:
The unsaturated fatty acids C14:1-C24:1 (myristoleic acid, palmitoleic acid, oleic acid, linoleic acid, linolenic acid, 11c-eicosenoic acid, arachidonic acid, erucic acid, and neuronic acid) and squalenee (Sigma) were also tested.
10 μL of each of the oils to be tested was added with 9 μL of WST1 to the wells of a 96 well microtitre plate. 10^6 cells/mL (100 μL of 10^7 cells/mL) were added to each well and the color change measured in a spectrophotometer at 450 nm at 37° for 60 minutes (one measurement/min).
10 μL each of the oils to be tested were added to the wells of a 96 well microtitre plate. 50 μL of cytochrome C (4 mg/mL) and […] (50 μL of 10^7 cells/mL) were added to each well and the absorbance measured in a spectrophotometer at 550 nm at 37° C. for 60 minutes (one measurement/minute).
(Tetrazolium dyes change colour on reduction, which living cells bring about.)

In series [4] the test system is DA rats. The series can be described thus: Arthritis-inducing effect of oils injected intradermally at the base of the tail. The class given is in vivo, Rat (Rattus norvegicus). As to conditions: oil injected intradermally at base of tail, scored days 12-31, FIG. 10. An excerpt:
The arthritis-inducing effects of the oils was examined by injecting the oils intradermally into DA rats. […] Note that p<0.05 for alkanes shorter than C15 compared to C19. All statistics evaluated with student's t-test. N=4 for all groups.

Series [5] can be described thus: In vivo distribution of 14C-labeled oils. On the set-up: species or system Rat (Rattus norvegicus). The protocol:
[1-14C]-Hexadecane and [1-14C]-Oleic acid were purchased from Amersham. The oils were injected intradermally at the base of the tail in 18 DA rats (200 μL). At day 10, the organs (lymph nodes, spleen, liver and kidney) of three rats from each group were collected. The organs were weighed and homogenized in a total volume of 2 mL PBS and frozen. The same procedure was followed at day 20 and at day 30. 1 mL of the homogenised samples was then added to 10 mL Ready Safe (Beckman) and counted in a beta counter. The distribution of radioactive labelled hexadecane to the lymph nodes was also inspected at earlier time points (day 3, day 6, day 10, and day 13).

Here are results for 5 compounds from US7943338B2, “Autoimmune conditions and NADPH oxidase defects” (Arexis AB, priority 2002, dated 2011).

In the case of `c1ccc2c(c1)[I+]c1ccccc1-2` [DPI, diphenyleneiodonium chloride], the severity of arthritis entry in series [1] (DPI 1.25 μmol/kg i.p. on days 0-21, FIG. 6) is listed as “increased severity of arthritis”. Further, the accumulated arthritis scores entry in series [1] (DPI-treated vs control rats, FIG. 7) is on record as “greater accumulated arthritis scores than control rats”. Further, the reduction of arthritis in series [2] is 50%.
With `CCCCCCCCCCCCCCC` [Pentadecane, pentadecane], the “activation of the NADPH complex” value in series [3] is “did not activate the NADPH complex”. Moreover, in series [4], the arthritis induction result is recorded as “did induce arthritis”.
Taken in the same sequence, the figures for `CCCCCCCCCCCCCCCCC` [heptadecane] were “activate the NADPH complex” and “induce arthritis”.
As to `CCCCCCCCCCCCCCCCCC` [octadecane], the “activation of the NADPH complex” value in series [3] is given as “activate the NADPH complex”. In addition, in series [4], the arthritis induction entry is given as “induce arthritis”.
With `CCCCCCCC/C=C\CCCCCCCC(=O)O` [oleic acid], the “arthritis in rats treated with radioactively-labeled oils” value in series [5] (200 μL i.d. at base of tail, DA rats, FIG. 13) is listed as “does not induce arthritis”. Further, the “extent of distribution to the lymph nodes” value in series [5] (hexadecane compared with oleic acid) is listed as “not distributed to the lymph nodes to as high an extent as the hexadecane”.
